Laboratory results published in patent publication US9551722B2, “Amyloid binding agents” (The Regents of the University of California, priority 2009, dated 2017).

Target: T1, aggregated Aβ(1-42) peptides (Homo sapiens, UniProt P05067)
T1 construct: preaggregated Aβ(1-42) peptides
Test: Fluorescence spectra before and after mixing with preaggregated Aβ(1-42) (Cmpds 8a-8d, 11, 14, 19)
Assay type: binding
Details: for Emission max before binding / Excitation max before binding: 4 μM compound in PBS, without Aβ; for Emission max before binding / Excitation max before binding / Emission max after binding / Excitation max after binding: 25° C.; for Fold increase (fluorescence intensity after binding) / Emission max after binding / Excitation max after binding: 4 μM compound, 5 μM aggregated Aβ(1-42); for Emission max after binding / Excitation max after binding: PBS
Source text: An initial study to determine whether a compound can associate with aggregated Aβ is to compare its fluorescence spectra before and after mixing with the Aβ aggregates. See E. E. Nesterov, J. Skoch, B. T. Hyman, W. E. Klunk, B. J. Bacskai, T. M. Swager, Angew. Chem. Int. Edit. 2005, 44:5452-5456; Z. P. Zhuang, M. P. Kung, H. F. Kung, J. Med. Chem. 2006, 49:2841-2844; Q. A. Li, J. S. Lee, C. Ha, C. B. Park, G. Yang, W. B. Gan, Y. T. Chang, Angew. Chem. Int. Edit. 2004, 43:6331-6335; H. F. Kung, C. W. Lee, Z. P. Zhuang, M. P. Kung, C. Hou, K. Plossl, J. Am. Chem. Soc. 2001, 123:12740-12741. […] See H. LeVine III, Protein Sci. 1993, 2:404-410. Along these lines we measured the fluorescent properties of each compound at 4 μM concentration before and after mixing with preaggregated Aβ(1-42) peptides (5 μM, aggregated in PBS buffer for 3 days at 25° C.).
Aggregated Aβ peptide was prepared by dissolving Aβ(1-42) in PBS pH 7.4 to a final concentration of 100 μM. This solution was magnetically stirred at 1200 rpm for 3 days at room temperature. The 100 μM Aβ(1-42) stock solution in PBS was aliquoted and frozen at […] for up to 4 weeks without noticeable change in its property. 150 μL of pre-aggregated Aβ(1-42) was added to 2.85 mL of compound to attain a final concentration of 5 μM Aβ(1-42) and 4 μM of compound. The solution was transferred to 3 mL cuvette and the fluorescence measured at 25° C. […] The fluorescence excitation spectra of Cmpds 8a, 8b, 8c, 14 and 19 are depicted in FIG. 4, respectively.

T1 sequence (P05067 672-713 limits assumed): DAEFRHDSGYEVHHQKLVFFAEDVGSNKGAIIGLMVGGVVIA

| SMILES | Emission max before binding | Excitation max before binding | Fold increase (fluorescence intensity after binding) | Emission max after binding | Excitation max after binding | Red shift of emission upon binding (binding to preaggregated Aβ) |
| --- | --- | --- | --- | --- | --- | --- |
| CCN(CC)c1ccc(C=C(C#N)C(=O)OCCOCCOCCOC)cc1 (stereo in doubt) [Cmpd 8c, (Z)-2-(2-(2-methoxyethoxyl)ethoxy)ethyl 2-cyano-3-(4-(diethylamino)phenyl)acrylate] | 478 nm | 445 nm | 4.2 fold | 470 nm | 442 nm |  |
| CCCCN(CCCC)c1ccc(C=C(C#N)C(=O)OCCOCCOCCOC)cc1 (stereo in doubt) [Cmpd 8d, (Z)-2-(2-(2-methoxyethoxyl)ethoxy)ethyl-2-cyano-3-(4-(dibutylamino)phenyl)acrylate] | 466 nm | 432 nm | 9.4 fold | 468 nm | 440 nm |  |
| COCCOCCOCCOC(=O)/C(C#N)=C/c1ccc(N(C)C)cc1 [Cmpd 8a, (E)-2-(2-(2-methoxyethoxyl)ethoxy)ethyl 2-cyano-3-(4-(dimethylamino)phenyl)acrylate] | 476 nm | 439 nm | 1.8 fold | 470 nm | 435 nm |  |
| COCCOCCOCCOC(=O)/C(C#N)=C/c1ccc(N(C)C)cc1OC [Cmpd 8b, (E)-2-(2-(2-methoxyethoxyl)ethoxy)ethyl 2-cyano-3-(4-(dimethylamino)-2-methoxyphenyl)acrylate] | 478 nm | 442 nm | 1.3 fold | 469 nm | 444 nm |  |
| COCCOCCOCCOC(=O)/C(C#N)=C/c1ccc2cc(N3CCCCC3)ccc2c1 [Cmpd 11, (E)-2-(2-(2-methoxyethoxyl)ethoxy)ethyl-2-cyano-3-(6-(piperidin-1-yl)naphthalen-2-yl)acrylate] | 462 nm | 445 nm | 9.3 fold | 538 nm | 440 nm | 76 nm |
| CN(C)c1ccc(/C=C(\C#N)C(=O)OCC(O)CO)cc1 (stereo not shown) [Cmpd 14, (E)-2,3-dihydroxypropyl 2-cyano-3-(4-(dimethylamino)phenyl) acrylate] | 476 nm | 437 nm | 2.2 fold | 467 nm | 434 nm |  |
